Key:
Format in all cases: in vivo
[1] = test system: blast disease fungus (race 007); experiment: Blast disease assay after BTH treatment in non-transformed and OsWRKY45 RNAi rice plants; conditions: 0.5 mM BTH sprayed at 4-leaf stage, inoculated 2 days later, counted after 7 days
From the text: FIG. 8 is a graph depicting the results of inducing the blast disease resistance by BTH in rice plants in which OsWRKY45 expression is suppressed. A blast disease fungus was inoculated into non-transformed rice plants, either treated or not treated with BTH, and BTH-treated rice plants in which OsWRKY45 expression was suppressed. After seven days, the number of blotches on the 10-cm long central part of leaf blades was counted in each plant.
In order to examine the effect of suppression of OsWRKY45 expression on the blast disease resistance induced in rice by BTH treatment, non-transformed rice plants and transformed lines of rice plant in which the suppression of OsWRKY45 expression by RNAi had been confirmed were sprayed with 0.5 mM BTH at the 4-leaf stage, and then inoculated with a compatible blast disease fungus (race 007) 2 days later. After 7 days, the blotches present on the 10-cm long central part of leaf blades were counted in each plant body.

OsWRKY45 = experiment: Induction of OsWRKY45 gene expression by BTH treatment (Northern blot analysis); conditions: rice seedlings 3.5-leaf stage, 0.5 mM BTH, leaves
Procedure: FIG. 1 depicts the induction of OsWRKY45 gene expression by BTH treatment. Rice plants at the 3.5-leaf stage were treated with BTH, and RNAs were prepared from leaves over time and subjected to Northern analysis. For comparison, two types of PR genes (PR1b and PBZ1) were also examined for induction of expression.
In order to detect a transcription factor gene inducibly expressed by BTH, rice seedlings (3.5-leaf stage) on day 10 after seeding were treated with 0.5 mM BTH (in 0.01% Tween 20/0.5% acetone), and the RNAs prepared over time (12, 24, 72, and 120 hours after the treatment) from BTH-treated and mock-treated rice leaves were subjected to DNA microarray analysis with the rice 22K array (Agilent). As a result, a WRKY transcription factor gene (OsWRKY45, AK066255; SEQ ID NOs: 1 and 2) that is inducibly expressed by BTH treatment was found.

[2] = test system: PR1b and OsWRKY45 expression; experiment: Induction of PR1b and OsWRKY45 expression by BTH in NH1 RNAi rice plants (RT-PCR); conditions: rice plants in which NH1 was suppressed by RNAi
From the text: FIG. 10 is composed of photographs depicting OsWRKY45 expression in rice plants in which the expression of NH1, a rice NPR1 homolog, is suppressed by RNAi. Two lines (#7 and #14) in which the NH1 expression was suppressed by RNAi were BTH-treated or mock-treated to examine the induction of expression of PR1b and OsWRKY45 by RT-PCR.
Recently, it was reported that in Arabidopsis thaliana, the resistance to a filamentous fungus, Erysiphe cichoracearum, was enhanced by the introduction of WRKY70, a WRKY transcription factor (Li, J., Brader, G., Kariola, T., and Palva, E. T. (2006). WRKY70 modulates the selection of signaling pathways in plant defense. Plant J. 46, 477-491). […] From these findings, WRKY70 is thought to be a transcription factor downstream of NPR1. Thus, for comparison of functions between WRKY70 and OsWRKY45, the induction of PR1b and OsWRKY45 expressions by BTH was examined in rice plants in which NH1, a rice NPR1 homolog (Chern, M., Fitzgerald, H. A., Canlas, P. E., Navarre, D. A., and Ronald, P. C. (2005). Overexpression of a rice NPR1 homolog leads to constitutive activation of defense response and hypersensitivity to light. Mol. Plant-Microbe Int. 18, 511-520) was suppressed by RNAi.

For `c1ccc2snnc2c1` [BTH, benzothiadiazole], the “blotches on the 10-cm long central part of leaf blades” value ([1]; non-transformed rice) was “Almost no blotches were observed”, the “blotches on the 10-cm long central part of leaf blades” value ([1]; rice with OsWRKY45 expression suppressed by RNAi) was “nearly equal number of blotches to that in non-treated, non-transformed rice plants” and the “time after BTH treatment within which OsWRKY45 expression was induced” value (OsWRKY45) was at most 3 h. The “induction of OsWRKY45 expression by BTH” value [2] was “not affected at all” and the “induction of PR1b expression by BTH” value [2] was “completely lost”.

— patent publication US8373021B2, “Improving disease resistance in plants by introducing transcription factor gene” (priority 2005, dated 2013)
